# Test results reported in ChEMBL document CHEMBL1156887, “Discovery of olodaterol, a novel inhaled beta2-adrenoceptor agonist with a 24 h bronchodilatory efficacy” (Bioorg Med Chem Lett, 2010).
# Legend:
# [1] = Apparent permeability from basolateral to apical side in human Caco-2 cells; type: ADME, cell-based
# [2] = Apparent permeability from apical to basolateral side in human Caco-2 cells; type: ADME, cell-based
# [3] = Lipophilicity, log D at pH 7.4; type: physicochemical; conditions: buffer
# [4] = Oral bioavailability in rat; type: ADME, organism-based; conditions: in vivo
smiles,measurement,setting,value
COc1ccc(CC(C)(C)NC[C@H](O)c2cc(O)cc3c2OCC(=O)N3)cc1 [OLODATEROL],Papp B→A,[1],9 ×10⁻⁶ cm/s
same,Papp A→B,[2],0.35 ×10⁻⁶ cm/s
same,logD,[3],1.2
same,bioavailability,[4],3%
